From paper PMC9230201, “Sustained Consumption of a Decaffeinated Green Coffee Nutraceutical Has Limited Effects on Phenolic Metabolism and Bioavailability in Overweight/Obese Subjects” (Nutrients, 2022)

Tests used:
[1] = Plasma pharmacokinetics of phenolic metabolites after intake of the GCPE nutraceutical (LC-MS-QToF)
[2] = Urinary excretion of phenolic metabolites after intake of the GCPE nutraceutical; conditions: for Cumulative urinary excretion, Total 0–24 h: urine, mean ± SEM, n = 9
[3] = week 0, GCPE nutraceutical with 300 mg hydroxycinnamic acids, mean ± SEM, n = 9
[4] = week 0, first peak where biphasic
[5] = week 8, GCPE nutraceutical with 300 mg hydroxycinnamic acids, mean ± SEM, n = 9
[6] = week 8, first peak where biphasic

| Compound | AUC0–24h ([1]; week 0) | Cmax [1, 3] | Tmax (h) or Range [1, 4] | AUC0–24h ([1]; week 8) | Cmax [1, 5] | Tmax (h) or Range [1, 6] | Cumulative urinary excretion, Total 0–24 h ([2]; week 0) | Cumulative urinary excretion, Total 0–24 h ([2]; week 8) | Amount excreted in urine, TOTAL ([2]; week 0, Table S5 total) | Amount excreted in urine, 0- 3 h ([2]; week 0, interval 0–3 h) | Amount excreted in urine, 3-6 h ([2]; week 0, interval 3–6 h) | Amount excreted in urine, 6-9 h ([2]; week 0, interval 6–9 h) | Amount excreted in urine, 9-11 h ([2]; week 0, interval 9–11 h) | Amount excreted in urine, 11-24 h ([2]; week 0, interval 11–24 h) | Amount excreted in urine, TOTAL ([2]; week 8, Table S6 total) | Amount excreted in urine, 0- 3 h ([2]; week 8, interval 0–3 h) | Amount excreted in urine, 3-6 h ([2]; week 8, interval 3–6 h) | Amount excreted in urine, 6-9 h ([2]; week 8, interval 6–9 h) | Amount excreted in urine, 9-11 h ([2]; week 8, interval 9–11 h) | Amount excreted in urine, 11-24 h ([2]; week 8, interval 11–24 h) | other results |
| --- | --- | --- | --- | --- | --- | --- | --- | --- | --- | --- | --- | --- | --- | --- | --- | --- | --- | --- | --- | --- | --- |
| COc1cc(/C=C/C(=O)NCC(=O)O)ccc1O [Feruloylglycine] | 0.029 ± 0.007 µM/min | Traces ^b | 7 ± 1 h | 0.026 ± 0.004 µM/min | Traces ^b | 8.4 ± 0.6 h | 19 ± 5 µmol | 25 ± 5 µmol | 19 ± 5 µmol | 1 ± 0.2 µmol | 0.9 ± 0.3 µmol | 4 ± 1 µmol | 2.6 ± 0.9 µmol | 3.9 ± 0.9 µmol | 25 ± 5 µmol | 1 ± 0.3 µmol | 1.2 ± 0.3 µmol | 3 ± 1 µmol | 3 ± 1 µmol | 3 ± 1 µmol | Cmax ([1]; weeks 0 and 8 not distinguished): trace levels; Cumulative urinary excretion, Total 0–24 h ([2]; week 0, listed as feruloylglycine): 19 µmol; Cumulative urinary excretion, Total 0–24 h ([2]; week 8, listed as feruloylglycine): 25 µmol; Amount excreted in urine, 0 h ([2]; week 8, 0 h (before intake on sampling day)): 14 ± 4 µmol |
| O=C(O)/C=C/c1ccc(OS(=O)(=O)O)cc1 [CoA-4′-sulfate, Cinnamic acid-4′-sulfate] | 0.2 ± 0.2 µM/min | 20 ± 20 nM | 1.7 ± 0.9 h | 0.4 ± 0.2 µM/min | 30 ± 10 nM |  |  |  |  |  |  |  |  |  |  |  |  |  |  |  | Tmax, second peak ([1]; week 0, biphasic profile): 6 ± 3 h; Tmax, second peak ([1]; week 8, biphasic profile): 11 ± 3 h |
| O=C(O)Cc1ccc(O)cc1 [4′-Hydroxyphenylacetic acid] | 2 ± 1 µM/min | 2000 ± 1000 nM | 2 ± 2 h | 36 ± 23 µM/min | 7000 ± 3000 nM | 0.6 ± 0.1 h |  |  |  |  |  |  |  |  |  |  |  |  |  |  |  |
| COc1cc(CCC(=O)O)ccc1OS(=O)(=O)O [DHFA-4′-sulfate, 3-(3′-Methoxyphenyl)propanoic acid-4′-sulfate] | 1.5 ± 0.7 µM/min | 190 ± 80 nM | 8.1 ± 0.4 h | 1.1 ± 0.3 µM/min | 170 ± 50 nM | 8.4 ± 0.6 h | 10 ± 2 µmol | 9 ± 2 µmol |  | 0.5 ± 0.1 µmol | 0.5 ± 0.1 µmol | 3.4 ± 1.2 µmol | 2.1 ± 0.5 µmol | 3.5 ± 0.8 µmol |  | 0.6 ± 0.1 µmol | 0.8 ± 0.2 µmol | 2 ± 1 µmol | 3 ± 1 µmol | 2.6 ± 0.8 µmol |  |
| O=C(O)CNC(=O)c1ccc(O)cc1 [4′-Hydroxyhippuric acid] | 1.2 ± 0.2 µM/min | 80 ± 10 nM | 12 ± 3 h | 1.3 ± 0.2 µM/min | 90 ± 10 nM | 8 ± 2 h | 14 ± 2 µmol | 14 ± 2 µmol | 14 ± 2 µmol | 1.3 ± 0.3 µmol | 0.7 ± 0.1 µmol | 1 ± 0.3 µmol | 0.8 ± 0.2 µmol | 3.8 ± 0.9 µmol | 14 ± 2 µmol | 1.5 ± 0.3 µmol | 0.6 ± 0.1 µmol | 1.2 ± 0.2 µmol | 1.1 ± 0.3 µmol | 2.8 ± 0.6 µmol |  |
| O=C(O)C=Cc1ccc(OC2OC(C(=O)O)C(O)C(O)C2O)cc1 (centres unmarked) [CoA-4′-glucuronide, Cinnamic acid-4′-glucuronide] | 0.72 ± 0.08 µM/min | 39 ± 2 nM | 1.4 ± 0.3 h | 0.71 ± 0.07 µM/min | 38 ± 2 nM | 2.1 ± 0.2 h |  |  |  |  |  |  |  |  |  |  |  |  |  |  | Tmax, second peak ([1]; week 0, biphasic profile): 7.0 ± 0.9 h; Tmax, second peak ([1]; week 8, biphasic profile): 9 ± 2 h |
